Laboratory results taken from US20230152329A1, “NOVEL SPLIT-LUCIFERASE ENZYMES AND APPLICATIONS THEREOF” (ARIZONA BOARD OF REGENTS ON BEHALF OF THE UNIVERSITY OF …, priority 2020, published 2023).
Where two headings read alike, the source gives them in different places.

B1: Y33A: first-generation split-Fluc228 with N-FLuc228 Y33A single mutant (SEQ ID NO: 8) (protein)
chain: MEDAKNIKKGPAPFYPLEDGTAGEQLHKAMKRAALVPGTIAFTDAHIEVNITYAEYFEMSVRLAEAMKRYGLNTNHRIVVCSENSLQFFMPVLGALFIGVAVAPANDIYNERELLNSMNISQPTVVFVSKKGLQKILNVQKKLPIIQKIIIMDSKTDYQGFQSMYTFVTSHLPPGFNEYDFVPESFDRDKTIALIMNSSGSTGLPKGVALPHRTACVRFSHARDPIFG
B2: H46A: first-generation split-Fluc228 with N-FLuc228 H46A single mutant (SEQ ID NO: 7) (protein)
chain: MEDAKNIKKGPAPFYPLEDGTAGEQLHKAMKRYALVPGTIAFTDAAIEVNITYAEYFEMSVRLAEAMKRYGLNTNHRIVVCSENSLQFFMPVLGALFIGVAVAPANDIYNERELLNSMNISQPTVVFVSKKGLQKILNVQKKLPIIQKIIIMDSKTDYQGFQSMYTFVTSHLPPGFNEYDFVPESFDRDKTIALIMNSSGSTGLPKGVALPHRTACVRFSHARDPIFG

What was measured:
[1] = target: T1, protein-protein interaction of Bcl-xL and BAK (Homo sapiens, UniProt Q07817); experiment: In cellulo split-luciferase assay, inhibition of Bcl-xL/BAK interaction in HEK293T cells; type: cell-based; conditions: 14 hours; for inhibition at 10 µM: HEK-293T, read-out: Percent Inhibition
T1 construct: appending the soluble domain of Bcl-xL to the C-terminal fragment of N-Fluc228 Y33A/H46A; expressed in transfected cells; host or cells: HEK293T, transient transfection (pcDNA 3.1 constructs)
Protocol: N-terminal halves of firefly luciferase (N-Fluc) constructs were generated by fusing FK506-binding protein (FKBP) or Bcl-xL 209 (CΔ24) to the C-terminal of N-Fluc with a 27-residue glycine-serine linker in pcDNA 3.1 via restriction cloning. […] For in vitro assays, mRNA was generated using RiboMaX large scale RNA production system (T7) for 4 h at 30° C. and subsequently purified using G50-microcolumns.
HEK293T cells were maintained in DMEM supplemented with 10% (v/v) FBS, 2.5 μg/mL Amphotericin B, 100 U/mL penicillin, and 100 μg/mL streptomycin, and in a 37° C. water-saturated incubator with 5% CO2. For in cellulo experiments, 3×10^6 cells were seeded in 60 mm dishes for 24 h and then transiently transfected with equal amounts of DNA of each luciferase fragment using PolyJet In Vitro DNA Transfection Reagent. Twelve hours following transfection, 2.5×10^5 cells were transferred to 24-well plates and incubated for an additional 24 h. […] All reported data was done at least in duplicate and repeated on different days. Data from luciferase assays were all normalized by lysate load and with background correction of equivalently treated mock transfected HEK293T cells.
Split-Fluc228 Y33A/H46A constructs were created by appending the soluble domain of Bcl-xL to the C-terminal fragment of N-Fluc228 Y33A/H46A with a 27-residue glycine-serine linker, giving N-Fluc228 Y33A/H46A-GS27-Bcl-xL. The BH3 domain of BAK (20 residues) was appended to the N-terminal fragment of C-Fluc229 through a 30-residue glycine-serine linker, providing BAK-GS30-C-Fluc229.

FKBP-Rapamycin-FRB = target: T2, FKBP-Rapamycin-FRB (Homo sapiens, UniProt P42345+P62942); experiment: Cell-free (rabbit reticulocyte lysate) rapamycin-inducible split-luciferase assay; type: biochemical; conditions: cell-free RRL; for rapamycin dependent luminescence signal (overall signal): 100 nM rapamycin; for unassisted/background complementation: without added rapamycin (DMSO)
T2 construct: N-terminal fragment of firefly luciferase (N-Fluc); split at 159, 228, 374, 397 or 405; C-terminal fragment of firefly luciferase (C-Fluc); made in house; host or cells: cell-free translation in rabbit reticulocyte lysate (RRL) from in vitro transcribed mRNA
Source text: N-terminal halves of firefly luciferase (N-Fluc) constructs were generated by fusing FK506-binding protein (FKBP) or Bcl-xL 209 (CΔ24) to the C-terminal of N-Fluc with a 27-residue glycine-serine linker in pcDNA 3.1 via restriction cloning. C-terminal halves of firefly luciferase (C-Fluc) were created by fusing either FKBP rapamycin-binding (FRB) domain or the BH3-domain of BAK to the N-terminal of C-Fluc with a 30-residue glycine-serine linker in pcDNA 3.1 via restriction cloning. For in vitro assays, mRNA was generated using RiboMaX large scale RNA production system (T7) for 4 h at 30° C. and subsequently purified using G50-microcolumns.
Following translation, 20 μL of lysate was added to 80 μL of L-Glo luciferase assay reagent, incubated at room temperature for 1 min and luminescence was subsequently read using a luminometer with 10 s integration time. All reported data are at least in duplicate and assays have been repeated on different days. Data from the reported luciferase assays were all normalized with background correction of equivalent treatment of RRL without added mRNA.
The N-terminal fragment of each split-luciferase was fused to FKBP at the C-terminal end and the C-terminal fragment of each split-luciferase was fused to FRB at the N-terminal end. Referring to FIG. 2A, the linkers between the enzyme fragments and the FKBP or FRB included 27 to 30 residue glycine-serine linkers. With the five split-Fluc constructs in hand, complementation was tested employing a cell-free protein expression approach using rabbit reticulocyte lysate (RRL), which allows for rapid protein expression and analysis. […] Following incubation, L-Glo reagent containing the substrate, luciferin, was added to each of the split-Fluc pairs and luminescence was subsequently measured.

[2] = 10 μM ABT-737, N-Fluc228 WT-Bcl-xL CΔ24 with BAK-CFluc229, HEK293T
[3] = 10 μM ABT-737, N-Fluc228 Y33A/H46A-Bcl-xL CΔ24 with BAK-CFluc229, HEK293T

T1 sequence (Q07817 1-209 limits assumed): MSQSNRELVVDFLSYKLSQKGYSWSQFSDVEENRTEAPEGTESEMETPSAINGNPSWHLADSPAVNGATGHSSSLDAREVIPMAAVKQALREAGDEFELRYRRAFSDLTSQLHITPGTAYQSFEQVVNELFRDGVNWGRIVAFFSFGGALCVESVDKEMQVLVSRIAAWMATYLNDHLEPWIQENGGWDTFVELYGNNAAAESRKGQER
T2 sequence (P62942 whole entry, the tested form may be a part): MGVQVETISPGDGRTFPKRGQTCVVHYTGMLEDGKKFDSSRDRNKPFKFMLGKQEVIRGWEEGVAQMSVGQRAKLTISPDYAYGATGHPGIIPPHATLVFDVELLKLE
T2 sequence (P42345 2012-2144 limits assumed): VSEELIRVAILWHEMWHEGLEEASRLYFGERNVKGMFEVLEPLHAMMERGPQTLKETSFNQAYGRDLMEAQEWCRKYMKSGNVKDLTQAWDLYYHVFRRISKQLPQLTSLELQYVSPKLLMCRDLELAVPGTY

Row | Molecule | Average RLU [1, 2] | Average RLU [1, 3] | Percent Inhibition [1, 3] [%] | inhibition at 10 µM [1, 2] [%] | inhibition at 10 µM [1, 3] [%] | rapamycin dependent luminescence signal (overall signal) (FKBP-Rapamycin-FRB) | unassisted/background complementation (FKBP-Rapamycin-FRB)
1 | CN(C)CC[C@H](CSc1ccccc1)Nc1ccc(S(=O)(=O)NC(=O)c2ccc(N3CCN(Cc4ccccc4-c4ccc(Cl)cc4)CC3)cc2)cc1[N+](=O)[O-] [ABT-737] | 438,145 RLU | 2,258 RLU | 99.8 | 96.1 | > 99 |  | 
2 | B1 |  |  |  |  |  | maintaining strong rapamycin dependent signals | significantly reduced unassisted complementation
3 | B2 |  |  |  |  |  | maintaining strong rapamycin dependent signals | significantly reduced unassisted complementation
